Source: US6518423B1, “Benzopiperidine derivatives” (Eisai Co., Ltd., priority 1996, dated 2003)

With `CN(C)c1ncnc2c1[nH]c(=O)n2Cc1ccc2c(c1)Nc1nccnc1S2` the melting point was over 280 °C.
In the case of `CS(=O)(=O)N(CC(=O)O)C1CCN(Cc2ccc3c(c2)Nc2nccnc2S3)CC1`, the melting point is reported as 210 to 215 °C.
`COC(=O)c1ccc2c(c1)Nc1nccnc1S2` showed a melting point of 265 to 268 °C.
In the case of `c1ccc(-c2cn(Cc3ccc4c(c3)Nc3nccnc3S4)cn2)cc1`, the melting point is reported as 216 to 218 °C.
`c1cnc(NCc2ccc3c(c2)Nc2nccnc2S3)nc1` showed a melting point of 232 to 235 °C.
With `OC(c1ccc2c(c1)Nc1nccnc1S2)c1nccs1` (centres unmarked) the melting point was 110 to 114 °C.
For `N#CC(CCC(=O)O)=C1CCN(Cc2ccc3c(c2)Nc2nccnc2S3)CC1`, the melting point was 114 to 116 °C.
Work on `CCOC1(CC(=O)O)CC2(CCN(Cc3ccc4c(c3)Nc3nccnc3S4)CC2)C1` yielded a melting point of 226 to 227 °C.
In the case of `c1cnc2c(n1)Nc1cc(Cn3cncn3)ccc1S2`, the melting point is reported as 223 to 226 °C.
With `C/C(=C\C1C2(C)CCCC1(C)CN(Cc1ccc3c(c1)Nc1nccnc1S3)C2)C(=O)O` (centres unmarked) the melting point was 249 to 251 °C.
With `COCN1c2ccc(OC)cc2Nc2nccnc21` the melting point was 244 to 251 °C.
`CN1c2ccc(C#Cc3ccccc3)cc2Nc2nccnc21` gave a melting point of 245 to 247 °C.
With `CCOC(=O)CC1C2CCCC1CN(Cc1ccc3c(c1)Nc1nccnc1S3)C2` (centres unmarked) [Example 17] the melting point was 142 to 143 °C.
`CC(CO)C1C2CCCC1CN(Cc1ccc3c(c1)Nc1nccnc1S3)C2` (centres unmarked) gave a melting point of 88 to 92 °C.
With `O=C(O)c1ccc(CN2c3ccccc3Nc3nccnc32)cc1` the melting point was 253 to 255 °C.
Work on `CCOC(=O)CCCCCOc1ccc(NCc2ccc3c(c2)Nc2nccnc2S3)cn1` yielded a melting point of 105 to 108 °C.
For `CCOC(=O)C(C)CCC1CCN(C(=N)Cc2ccc3c(c2)Nc2nccnc2S3)CC1.Cl` (centres unmarked), the melting point was 219 to 220 °C.
For `CN(C)S(=O)(=O)NC1CCN(Cc2cnc3c(c2)Nc2nccnc2S3)CC1`, the melting point was 205 to 210 °C.
`O=C(O)C(F)=C1CCN(Cc2ccc3c(c2)Nc2nccnc2S3)CC1` gave a melting point of 167 to 173 °C.
Compound `c1cnc2c(n1)Nc1cc(Cn3ncnn3)ccc1S2` has a melting point of 206 to 208 °C.
`COc1ccc(NCc2ccc3c(c2)Nc2nccnc2S3)c(OC)n1` gave a melting point of 160 to 164 °C.
With `O=c1[nH]cnc2c1ncn2Cc1ccc2c(c1)Nc1nccnc1S2` the melting point was over 275 °C.
`OC(c1ccc(Br)nc1)c1ccc2c(c1)Nc1nccnc1S2` (centres unmarked) gave a melting point of 221 to 223 °C.
Compound `O=C(Nc1nccs1)c1ccc2c(c1)Nc1nccnc1S2` has a melting point of 320 to 322 °C.
With `O=C(O)CC(=O)N1CCC(NCc2ccc3c(c2)Nc2nccnc2S3)CC1` the melting point was 167 to 170 °C.
With `CC(CCC1CCN(C(=O)Cc2ccc3c(c2)Nc2nccnc2S3)CC1)C(=O)O` (centres unmarked) the melting point was 84 to 89 °C.
For `CN(C)S(=O)(=O)CCC1CCN(Cc2ccc3c(c2)Nc2nccnc2S3)CC1`, the melting point was 188 to 190 °C.
In the case of `COCN1c2cc(CCl)ccc2Sc2nccnc21`, the melting point is reported as 125 to 126 °C.
`c1ccc2c(NCc3ccc4c(c3)Nc3nccnc3S4)nccc2c1` gave a melting point of 222 to 225 °C.
Work on `c1ccc(Oc2ccc(NCc3ccc4c(c3)Nc3nccnc3S4)cn2)cc1` yielded a melting point of 162 to 165 °C.
`c1ccc2c(c1)CN(Cc1ccc3c(c1)Nc1nccnc1S3)C2` gave a melting point of 219 to 220 °C.
With `CC12CCCC(C)(CN(Cc3ccc4c(c3)Nc3nccnc3S4)C1)C2CC(=O)O` (centres unmarked) the melting point was 226 to 229 °C.
In the case of `Cc1nc2ncncc2n1Cc1ccc2c(c1)Nc1nccnc1S2`, the melting point is reported as over 275 °C.
For `N#CN=CNCc1ccc2c(c1)Nc1nccnc1S2`, the melting point was 224 to 226 °C.
`CCOC(=O)c1ccc2c(c1)Nc1nccnc1N2C` gave a melting point of 239 to 242 °C.
Work on `OCCCCC1CCN(Cc2ccc3c(c2)Nc2nccnc2S3)CC1` yielded a melting point of 132 to 135 °C.
For `CN1c2ccc(C#N)cc2Nc2nccnc21`, the melting point was 274 to 275 °C.
Compound `CC(C(=O)O)C1CCN(Cc2ccc3c(c2)Nc2nccnc2S3)CC1` (centres unmarked) has a melting point of 240 to 243 °C.
Work on `CN1c2ccc(CNC(N)=O)cc2Nc2nccnc21` yielded a melting point of over 275 °C.
Compound `CNS(=O)(=O)NC1CCN(Cc2ccc3c(c2)Nc2ncccc2S3)CC1` has a melting point of 216 to 218 °C.
Work on `N/C(=N\[N+](=O)[O-])NCc1ccc2c(c1)Nc1nccnc1S2` yielded a melting point of 226 to 228 °C.
